Source: PubChem BioAssay AID2060886 (Molecular Pharmacology Branch, DTP, NCI, 2025)

Tested on: 653999-131-R-J2-PDC complex spheroids, growth inhibition
Test: Anticancer human tumor 653999-131-R-J2-PDC patient-derived lung adenocarcinoma cell line growth inhibition [RAS]
Conditions: for IC50: curve of first compound; for viability, T/C: stronger effect = lower value
How it was run: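 Agents were tested in combination matrices in half-log decrements from a top concentration at or near clinical Cmax (10 microM if undetermined). Targets were multi-cell spheroids of tumour lines plus HUVEC and MSC stromal cells.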
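Also: spheroids exposed to the agents for seven days before the readout.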

Q: With `CC(=O)OC12COC1CC(O)C1(C)C(=O)C(O)C3=C(C)C(OC(=O)C(O)C(NC(=O)OC(C)(C)C)c4ccccc4)CC(O)(C(OC(=O)c4ccccc4)C21)C3(C)C` (centres undefined) + C#Cc1c(F)ccc2cc(O)cc(-c3ncc4c(N5CC6CCC(C5)N6)nc(OCC56CCCN5CC(F)C6)nc4c3F)c12 as the compound, how does the IC50 (second compound 0.0316 µM) read?
A: Its IC50 is 31.6 nM.

Q: And the IC50 (second compound 0.1 µM)?
A: The IC50 was < 31.6 nM.

Q: And the IC50 (second compound 0.316 µM)?
A: Its IC50 is < 31.6 nM.

Q: And the IC50 (second compound 1 µM)?
A: Its IC50 is < 31.6 nM.

Q: And the IC50 (second compound 3.16 µM)?
A: Its IC50 is < 31.6 nM.

Q: And the IC50 (second compound 10 µM)?
A: The IC50 was < 31.6 nM.

Q: And the viability, T/C (second compound 0.0316 µM, first compound 0.0316 µM)?
A: The viability, T/C was 51%.

Q: And the viability, T/C (second compound 0.0316 µM, first compound 0.1 µM)?
A: The viability, T/C was 58%.

Q: And the viability, T/C (second compound 0.0316 µM, first compound 0.316 µM)?
A: The viability, T/C was 47.7%.

Q: What about the viability, T/C (second compound 0.0316 µM, first compound 1 µM) of the same compound?
A: The viability, T/C was 65.3%.

Q: What about the viability, T/C (second compound 0.0316 µM, first compound 3.16 µM) of the same compound?
A: Its viability, T/C is 71.5%.

Q: And the viability, T/C (second compound 0.0316 µM, first compound 10 µM)?
A: Its viability, T/C is 59.4%.

Q: And the viability, T/C (second compound 0.1 µM, first compound 0.0316 µM)?
A: The viability, T/C was 50%.

Q: What about the viability, T/C (second compound 0.1 µM, first compound 0.1 µM) of the same compound?
A: Its viability, T/C is 47%.

Q: And the viability, T/C (second compound 0.1 µM, first compound 0.316 µM)?
A: The viability, T/C was 50.4%.

Q: What about the viability, T/C (second compound 0.1 µM, first compound 1 µM) of the same compound?
A: Its viability, T/C is 55.7%.

Q: What about the viability, T/C (second compound 0.1 µM, first compound 3.16 µM) of the same compound?
A: Its viability, T/C is 57%.

Q: And the viability, T/C (second compound 0.1 µM, first compound 10 µM)?
A: The viability, T/C was 55.5%.

Q: And the viability, T/C (second compound 0.316 µM, first compound 0.0316 µM)?
A: Its viability, T/C is 43.4%.

Q: And the viability, T/C (second compound 0.316 µM, first compound 0.1 µM)?
A: Its viability, T/C is 41.3%.

Q: What about the viability, T/C (second compound 0.316 µM, first compound 0.316 µM) of the same compound?
A: Its viability, T/C is 42.5%.

Q: And the viability, T/C (second compound 0.316 µM, first compound 1 µM)?
A: Its viability, T/C is 50.1%.

Q: And the viability, T/C (second compound 0.316 µM, first compound 3.16 µM)?
A: The viability, T/C was 47.4%.

Q: What about the viability, T/C (second compound 0.316 µM, first compound 10 µM) of the same compound?
A: The viability, T/C was 42.6%.

Q: And the viability, T/C (second compound 1 µM, first compound 0.0316 µM)?
A: Its viability, T/C is 25.7%.

Q: What about the viability, T/C (second compound 1 µM, first compound 0.1 µM) of the same compound?
A: The viability, T/C was 31.1%.

Q: What about the viability, T/C (second compound 1 µM, first compound 0.316 µM) of the same compound?
A: Its viability, T/C is 32.2%.

Q: What about the viability, T/C (second compound 1 µM, first compound 1 µM) of the same compound?
A: The viability, T/C was 31.9%.

Q: And the viability, T/C (second compound 1 µM, first compound 3.16 µM)?
A: The viability, T/C was 28.8%.

Q: What about the viability, T/C (second compound 1 µM, first compound 10 µM) of the same compound?
A: Its viability, T/C is 31%.

Q: And the viability, T/C (second compound 3.16 µM, first compound 0.0316 µM)?
A: The viability, T/C was 19.6%.

Q: And the viability, T/C (second compound 3.16 µM, first compound 0.1 µM)?
A: Its viability, T/C is 19.2%.

Q: And the viability, T/C (second compound 3.16 µM, first compound 0.316 µM)?
A: Its viability, T/C is 15.8%.

Q: What about the viability, T/C (second compound 3.16 µM, first compound 1 µM) of the same compound?
A: The viability, T/C was 16.2%.

Q: And the viability, T/C (second compound 3.16 µM, first compound 3.16 µM)?
A: Its viability, T/C is 24.1%.

Q: What about the viability, T/C (second compound 3.16 µM, first compound 10 µM) of the same compound?
A: The viability, T/C was 18.5%.

Q: And the viability, T/C (second compound 10 µM, first compound 0.0316 µM)?
A: Its viability, T/C is 12.6%.

Q: What about the viability, T/C (second compound 10 µM, first compound 0.1 µM) of the same compound?
A: Its viability, T/C is 11.7%.

Q: And the viability, T/C (second compound 10 µM, first compound 0.316 µM)?
A: The viability, T/C was 12.4%.

Q: And the viability, T/C (second compound 10 µM, first compound 1 µM)?
A: The viability, T/C was 13.5%.

Q: What about the viability, T/C (second compound 10 µM, first compound 3.16 µM) of the same compound?
A: Its viability, T/C is 17.4%.

Q: And the viability, T/C (second compound 10 µM, first compound 10 µM)?
A: The viability, T/C was 13.3%.

Q: With `CCc1c2c(nc3ccc(O)cc13)-c1cc3c(c(=O)n1C2)COC(=O)[C@]3(O)CC` + C#Cc1c(F)ccc2cc(O)cc(-c3ncc4c(N5CC6CCC(C5)N6)nc(OCC56CCCN5CC(F)C6)nc4c3F)c12 as the compound, how does the IC50 (second compound 0.0316 µM) read?
A: The IC50 was 7.6 nM.

Q: And the IC50 (second compound 0.1 µM)?
A: The IC50 was 7.98 nM.

Q: What about the IC50 (second compound 0.316 µM) of the same compound?
A: Its IC50 is 1.67 nM.

Q: And the IC50 (second compound 1 µM)?
A: The IC50 was < 0.949 nM.

Q: And the IC50 (second compound 3.16 µM)?
A: The IC50 was < 0.949 nM.

Q: And the IC50 (second compound 10 µM)?
A: The IC50 was < 0.949 nM.

Q: And the viability, T/C (second compound 0.0316 µM, first compound 0.000949 µM)?
A: Its viability, T/C is 85.8%.

Q: And the viability, T/C (second compound 0.0316 µM, first compound 0.003 µM)?
A: The viability, T/C was 68.4%.

Q: What about the viability, T/C (second compound 0.0316 µM, first compound 0.00949 µM) of the same compound?
A: The viability, T/C was 43.6%.

Q: And the viability, T/C (second compound 0.0316 µM, first compound 0.03 µM)?
A: The viability, T/C was 30.7%.

Q: What about the viability, T/C (second compound 0.0316 µM, first compound 0.0949 µM) of the same compound?
A: Its viability, T/C is 24.1%.

Q: And the viability, T/C (second compound 0.0316 µM, first compound 0.3 µM)?
A: The viability, T/C was 14.2%.

Q: What about the viability, T/C (second compound 0.1 µM, first compound 0.000949 µM) of the same compound?
A: The viability, T/C was 83.9%.

Q: And the viability, T/C (second compound 0.1 µM, first compound 0.003 µM)?
A: The viability, T/C was 58.7%.

Q: And the viability, T/C (second compound 0.1 µM, first compound 0.00949 µM)?
A: Its viability, T/C is 48.4%.

Q: What about the viability, T/C (second compound 0.1 µM, first compound 0.03 µM) of the same compound?
A: Its viability, T/C is 35.2%.

Q: And the viability, T/C (second compound 0.1 µM, first compound 0.0949 µM)?
A: The viability, T/C was 22.9%.

Q: What about the viability, T/C (second compound 0.1 µM, first compound 0.3 µM) of the same compound?
A: Its viability, T/C is 12.2%.

Q: And the viability, T/C (second compound 0.316 µM, first compound 0.000949 µM)?
A: Its viability, T/C is 57.5%.

Q: And the viability, T/C (second compound 0.316 µM, first compound 0.003 µM)?
A: The viability, T/C was 41.4%.

Q: What about the viability, T/C (second compound 0.316 µM, first compound 0.00949 µM) of the same compound?
A: The viability, T/C was 32.2%.

Q: And the viability, T/C (second compound 0.316 µM, first compound 0.03 µM)?
A: The viability, T/C was 23.5%.

Q: And the viability, T/C (second compound 0.316 µM, first compound 0.0949 µM)?
A: Its viability, T/C is 17.5%.

Q: What about the viability, T/C (second compound 0.316 µM, first compound 0.3 µM) of the same compound?
A: Its viability, T/C is 13.3%.

Q: What about the viability, T/C (second compound 1 µM, first compound 0.000949 µM) of the same compound?
A: The viability, T/C was 40.3%.

Q: What about the viability, T/C (second compound 1 µM, first compound 0.003 µM) of the same compound?
A: Its viability, T/C is 26.4%.

Q: What about the viability, T/C (second compound 1 µM, first compound 0.00949 µM) of the same compound?
A: The viability, T/C was 21.4%.

Q: And the viability, T/C (second compound 1 µM, first compound 0.03 µM)?
A: Its viability, T/C is 20.2%.

Q: And the viability, T/C (second compound 1 µM, first compound 0.0949 µM)?
A: Its viability, T/C is 15.1%.

Q: And the viability, T/C (second compound 1 µM, first compound 0.3 µM)?
A: The viability, T/C was 20.8%.

Q: And the viability, T/C (second compound 3.16 µM, first compound 0.000949 µM)?
A: Its viability, T/C is 39.2%.

Q: What about the viability, T/C (second compound 3.16 µM, first compound 0.003 µM) of the same compound?
A: Its viability, T/C is 21.2%.

Q: What about the viability, T/C (second compound 3.16 µM, first compound 0.00949 µM) of the same compound?
A: The viability, T/C was 16.6%.

Q: And the viability, T/C (second compound 3.16 µM, first compound 0.03 µM)?
A: The viability, T/C was 11.6%.

Q: And the viability, T/C (second compound 3.16 µM, first compound 0.0949 µM)?
A: The viability, T/C was 9.96%.

Q: And the viability, T/C (second compound 3.16 µM, first compound 0.3 µM)?
A: The viability, T/C was 7.39%.

Q: And the viability, T/C (second compound 10 µM, first compound 0.000949 µM)?
A: Its viability, T/C is 26.8%.

Q: And the viability, T/C (second compound 10 µM, first compound 0.003 µM)?
A: Its viability, T/C is 17.8%.

Q: What about the viability, T/C (second compound 10 µM, first compound 0.00949 µM) of the same compound?
A: The viability, T/C was 12.5%.

Q: And the viability, T/C (second compound 10 µM, first compound 0.03 µM)?
A: The viability, T/C was 9.45%.

Q: And the viability, T/C (second compound 10 µM, first compound 0.0949 µM)?
A: The viability, T/C was 7.29%.

Q: What about the viability, T/C (second compound 10 µM, first compound 0.3 µM) of the same compound?
A: The viability, T/C was 4.35%.
